The record followed here is publication PMC12434521, “Characterization of Next-Generation Inhibitors for the Inward-Rectifier Potassium Channel Kir2.1: Discovery of VU6080824” (ACS Medicinal Chemistry Letters, 2025).

This test has as its target T1, human Kir2.1 (Homo sapiens, UniProt P63252).
T1 construct: expressed in transfected cells
T1 sequence (P63252 1-427): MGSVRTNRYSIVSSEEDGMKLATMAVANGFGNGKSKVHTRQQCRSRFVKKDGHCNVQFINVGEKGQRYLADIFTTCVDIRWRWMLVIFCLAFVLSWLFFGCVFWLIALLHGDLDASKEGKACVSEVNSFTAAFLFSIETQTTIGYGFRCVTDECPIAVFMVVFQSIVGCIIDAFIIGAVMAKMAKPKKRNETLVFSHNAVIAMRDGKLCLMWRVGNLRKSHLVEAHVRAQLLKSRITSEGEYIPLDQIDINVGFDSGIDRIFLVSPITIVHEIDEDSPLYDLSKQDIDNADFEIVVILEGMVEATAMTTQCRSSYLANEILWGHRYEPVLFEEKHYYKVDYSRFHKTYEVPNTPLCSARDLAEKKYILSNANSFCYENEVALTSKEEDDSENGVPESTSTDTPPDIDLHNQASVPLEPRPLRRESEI
Description: Kir2.1 thallium flux assay. Format: cell-based. Conditions: for Thallium Flux Potency IC50 / IC50: T-REx-HEK-293 cells expressing human Kir2.1, 4PL fit, top concentration 30 μM; for Thallium Flux Efficacy (% Inhibition) / Emax: efficacy from 4PL fit, relative to ML133; for IC50: read-out: Thallium Flux Potency IC50; for Emax: read-out: Thallium Flux Efficacy (% Inhibition); for inhibition at 30 µM: compounds not fitting 4PL (> 10 μM): value at 30 μM relative to 30 μM ML133, read-out: Thallium Flux Efficacy (% Inhibition), 30 μM measured value. How it is done:
Thallium Flux Assay Experimental Conditions
The Tl+ flux assays were conducted as previously described with modifications optimized for Kir2.1 cell line as described below.1
Briefly, stable T-REx-HEK-293 cells expressing human K ir2.1 were cultured in DMEM growth medium (Catalog #11965-092, Gibco, Billings, MT) containing 10% heat-inactivated FBS (Catalog #16140, Gibco), 100 U/mL PenStrep, 5 μg/mL Blasticidin S, and 250 μg/mL Hygromycin.
The day prior to the experiment, cells at ~90% confluency were resuspended in plating media, which consisted of the same components as the growth media, except that heat-inactivated FBS was replaced with dialyzed FBS (Catalog #26400, Gibco). Tetracycline was added to the plating media to achieve a final concentration of 1 μg/ml to induce hKir2.1 expression. Cells were then counted and plated at 15,000 cells/well in black-walled, amine- or PDL- coated, 384-well plates at 20 μl/well (Corning, Corning, NY). On the day of experiment, the media was removed from the cell plate and replaced with 20 μl/well of Tl+-sensitive dye loading solution containing 2.5 μg/ml Thallos-AM (Catalog #11000-050, ION Biosciences, San Marcos, TX) in assay buffer using a Multidrop Combi dispenser (Thermo Fisher Scientific, Walkham, MA). Cell plates loaded with dye solution were incubated for 1 hour at room temperature. Following incubation, the cell plate was washed with HBSS assay buffer containing 20 mM HEPES using a BioTek ELx 405 TS plate washer (Agilent, Santa Clara, CA), leaving 20 μl of assay buffer in each well. The cell plate was then transferred to a Panoptic kinetic imaging plate reader (WaveFront Biosciences, Franklin, TN) for imaging at 1 Hz, 482/35 nm excitation and 536/40 nm emission for 10 seconds. Following this, 20 μl/well of HBSS assay buffer containing test compounds at 2-fold over their final concentrations were added and imaging continued for another eight minutes, after which 10 μl/well of chloride-free Tl+ stimulus solution was added (Catalog #11000-050, ION Biosciences). The final Tl2SO4 concentration in cell plate post-Tl+ stimulus solution addition was 0.25 mM. Images were collected for an additional two minutes. A ten-point concentration series from 30 μM to 2 nM with a 1:3 dilution factor was generated using an Echo liquid handler 650 (Labcyte, San Jose, CA). Final DMSO concentration, 0.3% (v/v) in the assay was constant across all compound concentrations.
The initial slopes of the Tl+-induced fluorescence changes were fit to a four-parameter logistic equation using our in-house software Waveguide to determine potency and efficacy values. […]
Bauer, J. A.; Days, E. L.; Lindsley, C. […]

As for `O=S1(=O)CCCN1c1ccc(CNCc2cccc3ccccc23)cc1` [Compound 3k], the “Thallium Flux Potency IC50” value was “inactive” and the “Thallium Flux Efficacy (% Inhibition)” value is “inactive”.

For orientation: IC50 means the concentration needed to halve the response being measured. With `COc1ccc(CNCc2ccc(-c3ccccc3F)cc2)cc1` [Compound 5o], the concentration for half-maximal inhibition (IC50) was determined as 10.7 µM and the Emax amounted to 102%.

Regarding `O=C1CCCN1c1ccc(CNCc2cccc3ccccc23)cc1` [Compound 3d], the “Thallium Flux Potency IC50” value was “inactive” and the “Thallium Flux Efficacy (% Inhibition)” value is “inactive”.

The inhibition is the relative decrease from the control value, in per cent. As to `COc1ccc(CNCc2ccc(N3CCCC3)cc2)cc1` [Compound 5v], the IC50 was over 10 µM and the inhibition at 30 µM stood at 96%.

Turning to `COc1ccc(CNCc2ccc(-c3ccccn3)cc2)cc1` [Compound 5l], the 50% inhibitory concentration (IC50) is over 10 µM and the inhibition at 30 µM was found to be 90%.

For the compound `COc1ccc(CNCc2ccc(-c3ccncc3)cc2)cc1` [Compound 5n], the IC50 stood at 12.5 µM and the Emax turned out to be 98%.

For the compound `COc1ccc(CNCc2ccc(-c3cnn(C)c3)cc2)cc1` [Compound 5u], the “Thallium Flux Potency IC50” value was “inactive” and the “Thallium Flux Efficacy (% Inhibition)” value is “inactive”.

For the compound `OCc1ccc(CNCc2cccc3ccccc23)cc1` [Compound 3f], the “Thallium Flux Potency IC50” value was “inactive” and the “Thallium Flux Efficacy (% Inhibition)” value was “inactive”.

As for `COc1ccc(CNCc2ccc(N3CCCCC3)cc2)cc1` [Compound 5w], the IC50 is over 10 µM and the inhibition at 30 µM was 53%.

Regarding `c1ccc2c(c1)CN(Cc1cccc3ccccc13)CCO2` [Compound 3h], the “Thallium Flux Potency IC50” value was “inactive” and the “Thallium Flux Efficacy (% Inhibition)” value was “inactive”.

Turning to `COc1ccc(CNCc2ccc(N3CCOCC3)cc2)cc1` [Compound 5y], the “Thallium Flux Potency IC50” value is “inactive” and the “Thallium Flux Efficacy (% Inhibition)” value was “inactive”.

With `COc1ccc(CNCc2cccc3cnccc23)cc1` [Compound 5c], the IC50 was over 10 µM and the inhibition at 30 µM amounted to 45%.

Consider `COc1ccc(CNCc2ccc(-c3ccc(F)cc3)cc2)cc1` [Compound 5q], for which the 50% inhibitory concentration (IC50) is 9.3 µM and the Emax was determined as 99%.

For `COc1ccc(CNCc2cccc3c2OC(F)(F)O3)cc1` [Compound 5g], the “Thallium Flux Potency IC50” value is “inactive” and the “Thallium Flux Efficacy (% Inhibition)” value was “inactive”.

Regarding `FS(F)(F)(F)(F)c1ccc(CNCc2cccc3ccccc23)cc1` [Compound 3c], the “Thallium Flux Potency IC50” value was “inactive” and the “Thallium Flux Efficacy (% Inhibition)” value is “inactive”.

Turning to `COc1ccc(CNCc2ccc(N3CCCCS3(=O)=O)cc2)cc1` [Compound 5z], the “Thallium Flux Potency IC50” value was “inactive” and the “Thallium Flux Efficacy (% Inhibition)” value is “inactive”.

`COc1ccc(CNCc2nccc3ccccc23)cc1` [Compound 5a]: the “Thallium Flux Potency IC50” value is “inactive” and the “Thallium Flux Efficacy (% Inhibition)” value is “inactive”.

Take `COc1ccc(CNCc2ccc(-c3cccnc3)cc2)cc1` [Compound 5m]: the IC50 was found to be 10.8 µM and the Emax was 98%.

Consider `COc1ccc(CNCc2cccn3ccnc23)cc1` [Compound 5f], for which the “Thallium Flux Potency IC50” value is “inactive” and the “Thallium Flux Efficacy (% Inhibition)” value was “inactive”.

For `FC(F)Oc1ccc(CNCc2cccc3ccccc23)cc1` [Compound 3a], the half-maximal inhibitory concentration (IC50) was over 10 µM and the inhibition at 30 µM is 45%.

For the compound `COc1ccc2c(c1)CCN(Cc1cccc3ccccc13)C2` [Compound 3g], the “Thallium Flux Potency IC50” value is “inactive” and the “Thallium Flux Efficacy (% Inhibition)” value was “inactive”.

With `COc1ccc(CNCc2ccnc3ccccc23)cc1` [Compound 5e], the concentration for half-maximal inhibition (IC50) was over 10 µM and the inhibition at 30 µM was 75%.

As to `COc1ccc(CNCc2cccc3ncccc23)cc1` [Compound 5d], the “Thallium Flux Potency IC50” value was “inactive” and the “Thallium Flux Efficacy (% Inhibition)” value is “inactive”.

Take `CP(C)(=O)c1ccc(CNCc2cccc3ccccc23)cc1` [Compound 3l]: the “Thallium Flux Potency IC50” value is “inactive” and the “Thallium Flux Efficacy (% Inhibition)” value is “inactive”.

Take `Cc1cc(C)n(-c2ccc(CNCc3cccc4ccccc34)cc2)n1` [Compound 3e]: the IC50 is over 10 µM and the inhibition at 30 µM was determined as 50%.

As for `COCCOc1ccc(CNCc2cccc3ccccc23)cc1` [Compound 3j], the “Thallium Flux Potency IC50” value was “inactive” and the “Thallium Flux Efficacy (% Inhibition)” value was “inactive”.

Take `COc1ccc(CNCc2ccc(N3CCCCCC3)cc2)cc1` [Compound 5x]: the half-inhibitory concentration (IC50) was over 10 µM and the inhibition at 30 µM came out at 46%.

Take `N#Cc1ccc(CNCc2cccc3ccccc23)cc1` [Compound 3b]: the half-inhibitory concentration (IC50) is over 10 µM and the inhibition at 30 µM was 88%.
